For 37 compounds, Ki results are on record in patent publication US8901087B2, “Selective glycosidase inhibitors and uses thereof” (priority 2010, dated 2014).

Sequence of human O-GlcNAcase (O60502 whole entry): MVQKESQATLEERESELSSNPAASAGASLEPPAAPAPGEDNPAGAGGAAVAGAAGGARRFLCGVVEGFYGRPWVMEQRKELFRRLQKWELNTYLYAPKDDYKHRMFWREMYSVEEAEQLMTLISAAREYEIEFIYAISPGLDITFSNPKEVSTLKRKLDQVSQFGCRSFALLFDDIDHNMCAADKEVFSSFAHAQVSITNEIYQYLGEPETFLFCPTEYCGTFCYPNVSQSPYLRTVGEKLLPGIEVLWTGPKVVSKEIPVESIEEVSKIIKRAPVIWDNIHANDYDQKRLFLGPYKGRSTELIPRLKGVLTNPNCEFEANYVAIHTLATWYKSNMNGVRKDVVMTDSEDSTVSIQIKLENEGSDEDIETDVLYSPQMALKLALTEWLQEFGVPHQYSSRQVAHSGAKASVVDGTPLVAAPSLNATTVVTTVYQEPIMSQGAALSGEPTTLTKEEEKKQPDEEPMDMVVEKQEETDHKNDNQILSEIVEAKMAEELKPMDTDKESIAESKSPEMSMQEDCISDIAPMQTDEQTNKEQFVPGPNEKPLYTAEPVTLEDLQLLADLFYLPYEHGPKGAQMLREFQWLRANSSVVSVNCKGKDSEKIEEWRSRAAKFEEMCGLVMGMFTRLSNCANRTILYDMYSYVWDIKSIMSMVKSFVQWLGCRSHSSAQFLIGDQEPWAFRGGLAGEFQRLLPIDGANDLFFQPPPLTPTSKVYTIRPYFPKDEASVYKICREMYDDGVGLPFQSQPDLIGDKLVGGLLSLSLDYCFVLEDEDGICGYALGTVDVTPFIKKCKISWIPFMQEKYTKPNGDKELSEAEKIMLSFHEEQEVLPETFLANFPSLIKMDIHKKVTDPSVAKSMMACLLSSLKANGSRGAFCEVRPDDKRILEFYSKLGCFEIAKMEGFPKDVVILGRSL

The first test concerns the target human O-GlcNAcase (Homo sapiens (Human), UniProt O60502). The test can be described thus: Fluorescence-based assay for determination of KI values for inhibition of O-GlcNAcase activity.
Conditions: not given
Type of test: biochemical. As to the method: Assay for Determination of KI Values for Inhibition of O-GlcNAcase Activity
Experimental Procedure for Kinetic Analyses
Enzymatic reactions are carried out in a reaction containing 50 mM NaH2PO4, 100 mM NaCl and 0.1% BSA (pH 7.0) using 2 mM 4-Methylumbelliferyl N-acetyl-β-D-glucosaminide dihydrate (Sigma M2133) dissolved in ddH2O, as a substrate. The amount of purified human O-GlcNAcase enzyme used in the reaction is 0.7 nM. Test compound of varying concentrations is added to the enzyme prior to initiation of the reaction. The reaction is performed at room temperature in a 96-well plate and is initiated with the addition of substrate. […] The slope of product production is determined for each concentration of compound tested and plotted, using standard curve fitting algorithms for sigmoidal dose response curves. The values for a four parameter logistic curve fit of the data are determined.
Turning to `CON(C)C1=N[C@@H]2[C@@H](O)[C@H](O)[C@@H]([C@H](C)O)O[C@@H]2S1` (single isomer, unassigned) [Example 51], the Ki turned out to be 5100 pM.

Staying with this test, now noted: purified human O-GlcNAcase, 4-Methylumbelliferyl N-acetyl-β-D-glucosaminide substrate, pH 7.0, Cheng-Prusoff; read-out: Fluorescence-based hOGA Ki.
Turning to `CCCNC1=N[C@@H]2[C@@H](O)[C@H](O)[C@@H]([C@@H](O)C(F)(F)F)O[C@@H]2S1` [Example 97, (3aR,5S,6S,7R,7aR)-2-(propylamino)-5-((R)-2,2,2-trifluoro-1-hydroxyethyl)-5,6,7,7a-tetrahydro-3aH-pyrano[3,2-d]thiazole-6,7-diol], the Ki amounted to 170 pM.

Regarding `C=C[C@H](O)[C@H]1O[C@@H]2SC(N3CCC3)=N[C@@H]2[C@@H](O)[C@@H]1O` (single isomer, unassigned) [Example 80], the Ki amounted to 500 pM. The same measure, in the same setting: as for `O[C@H]1[C@H](O)[C@@H]([C@H](O)C(F)(F)F)O[C@@H]2SC(NCCF)=N[C@H]12` [Example 215, (3aR,5S,6S,7R,7aR)-2-(2-fluoroethylamino)-5-((S)-2,2,2-trifluoro-1-hydroxyethyl)-5,6,7,7a-tetrahydro-3aH-pyrano[3,2-d]thiazole-6,7-diol], the figure is 1800 pM. On the same count and under the same terms, as for `C[C@H](O)[C@H]1O[C@@H]2SC(N(C)C)=N[C@@H]2[C@@H](O)[C@@H]1O` [Example 1, (3aR,5R,6S,7R,7aR)-2-(Dimethylamino)-5-((S)-1-hydroxyethyl)-5,6,7,7a-tetrahydro-3aH-pyrano[3,2-d]thiazole-6,7-diol], the figure is 170 pM; as for `C[C@H](O)[C@H]1O[C@@H]2SC(NCCF)=N[C@@H]2[C@@H](O)[C@@H]1O` [Example 141, (3aR,5R,6S,7R,7aR)-2-(2-Fluoroethylamino)-5-((S)-1-hydroxyethyl)-5,6,7,7a-tetrahydro-3aH-pyrano[3,2-d]thiazole-6,7-diol], 820 pM.

Turning to `CON(C)C1=N[C@@H]2[C@@H](O)[C@H](O)[C@@H]([C@@H](O)C(F)(F)F)O[C@@H]2S1` [Example 98, (3aR,5S,6S,7R,7aR)-2-(methoxy(methyl)amino)-5-((R)-2,2,2-trifluoro-1-hydroxyethyl)-5,6,7,7a-tetrahydro-3aH-pyrano[3,2-d]thiazole-6,7-diol], the Ki stood at 1430 pM. Same read-out and setting: as for `CNC1=N[C@@H]2[C@@H](O)[C@H](O)[C@@H]([C@@H](O)C(F)(F)F)O[C@@H]2S1` [Example 95, (3aR,5S,6S,7R,7aR)-2-(methylamino)-5-((R)-2,2,2-trifluoro-1-hydroxyethyl)-5,6,7,7a-tetrahydro-3aH-pyrano[3,2-d]thiazole-6,7-diol], the figure is 160 pM; as for `CN(C)C1=N[C@@H]2[C@@H](O)[C@H](O)[C@@H](C(C)(O)C(F)(F)F)O[C@@H]2S1` (mixture of isomers) [Example 203, (3aR,5S,6S,7R,7aR)-2-(dimethylamino)-5-((S)-1,1,1-trifluoro-2-hydroxypropan-2-yl)-5,6,7,7a-tetrahydro-3aH-pyrano[3,2-d]thiazole-6,7-diol], 3160 pM; as for `C[C@H](O)[C@H]1O[C@@H]2SC(N3CCC3)=N[C@@H]2[C@@H](O)[C@@H]1O` (single isomer, unassigned) [Example 76], 180 pM. Same read-out and setting: as for `CCCNC1=N[C@H]2C(O[C@H]([C@@H](O)CC)[C@@H](O)[C@@H]2O)S1` (single isomer, unassigned) [Example 47], the figure is 6400 pM; as for `C=CC[C@H](O)[C@H]1O[C@@H]2SC(N3CCC3)=N[C@@H]2[C@@H](O)[C@@H]1O` (single isomer, unassigned) [Example 82], 5840 pM; as for `CN(C)C1=N[C@@H]2[C@@H](O)[C@H](O)[C@@H](C(C)(C)O)O[C@@H]2S1` [Example 4, (3aR,5S,6S,7R,7aR)-2-(dimethylamino)-5-(2-hydroxypropan-2-yl)-5,6,7,7a-tetrahydro-3aH-pyrano[3,2-d]thiazole-6,7-diol], 3100 pM. Turning to `C=C[C@H](O)[C@H]1O[C@@H]2SC(N(C)C)=N[C@@H]2[C@@H](O)[C@@H]1O` (single isomer, unassigned) [Example 63], the inhibition constant (Ki) was 220 pM. As to `CN(C)C1=N[C@@H]2[C@@H](O)[C@H](O)[C@@H]([C@@H](O)C(F)(F)F)O[C@@H]2S1` [Example 11, (3aR,5S,6S,7R,7aR)-2-(dimethylamino)-5-((R)-2,2,2-trifluoro-1-hydroxyethyl)-5,6,7,7a-tetrahydro-3aH-pyrano[3,2-d]thiazole-6,7-diol], the Ki was 300 pM. Still for that read-out and setting: as for `CCNC1=N[C@@H]2[C@@H](O)[C@H](O)[C@@H]([C@H](C)O)O[C@@H]2S1` (single isomer, unassigned) [Example 27], the figure is 120 pM; as for `CNC1=N[C@@H]2[C@@H](O)[C@H](O)[C@@H](C(C)(C)O)O[C@@H]2S1` [Example 3, (3aR,5S,6S,7R,7aR)-5-(2-Hydroxypropan-2-yl)-2-(methylamino)-5,6,7,7a-tetrahydro-3aH-pyrano[3,2-d]thiazole-6,7-diol], 900 pM. Same read-out and setting: as for `CCN(C)C1=N[C@H]2C(O[C@H]([C@H](C)O)[C@@H](O)[C@@H]2O)S1` (single isomer, unassigned) [Example 57], the figure is 330 pM; as for `CCCC[C@H](O)[C@H]1O[C@@H]2SC(N(C)C)=N[C@@H]2[C@@H](O)[C@@H]1O` (single isomer, unassigned) [Example 71], 9120 pM; as for `CC[C@H]1O[C@@H]2SC(NC)=N[C@@H]2[C@@H](O)[C@@H]1O` [Example 8, (3aR,5R,6S,7R,7aR)-5-Ethyl-2-(methylamino)-5,6,7,7a-tetrahydro-3aH-pyrano[3,2-d]thiazole-6,7-diol], 680 pM. As to `C[C@H](O)[C@H]1O[C@@H]2SC(N3CCCC3)=N[C@@H]2[C@@H](O)[C@@H]1O` (single isomer, unassigned) [Example 91], the Ki amounted to 530 pM. For `C[C@H](O)[C@H]1O[C@@H]2SC(NCC3CC3)=N[C@@H]2[C@@H](O)[C@@H]1O` (single isomer, unassigned) [Example 53], the Ki was found to be 700 pM. With `C=C(C)[C@H](O)[C@H]1O[C@@H]2SC(N(C)C)=N[C@@H]2[C@@H](O)[C@@H]1O` (single isomer, unassigned) [Example 65], the Ki is 450 pM.

As to `C=CC(O)C1O[C@@H]2SC(N(C)CC)=N[C@@H]2[C@@H](O)[C@@H]1O` (single isomer, unassigned) [Example 61], the inhibitory constant (Ki) stood at 2460 pM. For `CNC1=N[C@@H]2[C@@H](O)[C@H](O)[C@@H](C(C)(O)C(F)(F)F)O[C@@H]2S1` (stereo partly drawn) [Example 159, (3aR,5S,6S,7R,7aR)-2-(methylamino)-5-(1,1,1-trifluoro-2-hydroxypropan-2-yl)-5,6,7,7a-tetrahydro-3aH-pyrano[3,2-d]thiazole-6,7-diol], the Ki came to 1250 pM. Still for that read-out and setting: as for `C=C[C@H](O)[C@H]1O[C@@H]2SC(NCCC)=N[C@@H]2[C@@H](O)[C@@H]1O` (single isomer, unassigned) [Example 42], the figure is 1030 pM. With `C=CC[C@H](O)[C@H]1O[C@@H]2SC(N(C)C)=N[C@@H]2[C@@H](O)[C@@H]1O` (single isomer, unassigned) [Example 67], the Ki was found to be 1250 pM.

Turning to `CNC1=N[C@@H]2[C@@H](O)[C@H](O)[C@@H]([C@@H](C)F)O[C@@H]2S1` (single isomer, unassigned) [Example 181], the Ki came out at 800 pM.

`CCC[C@H](O)[C@H]1O[C@@H]2SC(N(C)C)=N[C@@H]2[C@@H](O)[C@@H]1O` (single isomer, unassigned) [Example 69]: the Ki is 9360 pM. Same read-out and setting: as for `C=CC[C@H](O)[C@H]1O[C@@H]2SC(NC)=N[C@@H]2[C@@H](O)[C@@H]1O` (single isomer, unassigned) [Example 25], the figure is 700 pM; as for `CCNC1=N[C@@H]2[C@@H](O)[C@H](O)[C@@H]([C@@H](O)CC)O[C@@H]2S1` [Example 105, (3aR,5R,6S,7R,7aR)-2-(ethylamino)-5-((S)-1-hydroxypropyl)-5,6,7,7a-tetrahydro-3aH-pyrano[3,2-d]thiazole-6,7-diol], 3400 pM; as for `CNC1=N[C@@H]2[C@@H](O)[C@H](O)[C@@H]([C@H](C)O)O[C@@H]2S1` (single isomer, unassigned) [Example 13], 400 pM. On the same count and under the same terms, as for `C[C@@H](O)[C@H]1O[C@@H]2SC(N(C)C)=N[C@@H]2[C@@H](O)[C@@H]1O` [Example 104, (3aR,5R,6S,7R,7aR)-2-(dimethylamino)-5-((R)-1-hydroxyethyl)-5,6,7,7a-tetrahydro-3aH-pyrano[3,2-d]thiazole-6,7-diol], the figure is 3630 pM; as for `CCCNC1=N[C@@H]2[C@@H](O)[C@H](O)[C@@H]([C@H](C)O)O[C@@H]2S1` [Example 2, (3aR,5R,6S,7R,7aR)-5-((S)-1-hydroxyethyl)-2-(propylamino)-5,6,7,7a-tetrahydro-3aH-pyrano[3,2-d]thiazole-6,7-diol], 50 pM. Still for that read-out and setting: as for `CC(C)(O)[C@H]1O[C@@H]2SC(N3CCC3)=N[C@@H]2[C@@H](O)[C@@H]1O` [Example 77, (3aR,5S,6S,7R,7aR)-2-(azetidin-1-yl)-5-(2-hydroxypropan-2-yl)-5,6,7,7a-tetrahydro-3aH-pyrano[3,2-d]thiazole-6,7-diol], the figure is 16300 pM. As for `CNC1=N[C@@H]2[C@@H](O)[C@H](O)[C@@H]([C@@H](O)C(F)F)O[C@@H]2S1` [Example 191, (3aR,5S,6S,7R,7aR)-5-((R)-2,2-difluoro-1-hydroxyethyl)-2-(methylamino)-5,6,7,7a-tetrahydro-3aH-pyrano[3,2-d]thiazole-6,7-diol], the inhibition constant Ki amounted to 140 pM. Still for that read-out and setting: as for `CCN(C)C1=N[C@@H]2[C@@H](O)[C@H](O)[C@@H]([C@@H](O)C(F)(F)F)O[C@@H]2S1` (single isomer, unassigned) [Example 211], the figure is 440 pM.

One may read the Ki as the equilibrium dissociation constant of an inhibitor or competing ligand from its target.
